According to patent US11059795B2, “Androgen receptor modulators and methods for their use” (ESSA Pharma, Inc., priority 2018, dated 2021):
Read-outs that look alike come from different tables or passages of the source.

Columns and labels:
[1] = Microsomal stability assay, human liver microsomes; assay type: in vitro ADME; conditions: for microsomal CLint at 1 μM: pH 7.4, 1 μM compound, 0.5 mg/mL protein, 37° C., read-out: HLM +/− NADPH: Clint (μL/min/mg protein); for half-life at 1 μM: pH 7.4, read-out: Liver microsome T½ (min) Human
In short: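 Compound at 1 μM was incubated at 37° C with 0.5 mg/mL liver microsomes and 1 mM NADPH and/or 1 mM UDPGA (with alamethicin) in 100 mM potassium phosphate pH 7.4, 3 mM MgCl2. Samples were taken at 0, 15, 30 and 60 min and measured by LC/MS/MS. t½ came from compound loss relative to 0 min, and Clint was scaled with 45 mg microsomal protein/g liver.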

androgen receptor (AR) = biological target: T1, androgen receptor (AR) (Homo sapiens, UniProt P10275, T878A); experiment: Androgen-induced PSA (6.1 kb)-luciferase reporter assay in LNCaP cells; assay type: cell-based; conditions: LNCaP cells transfected with PSA (6.1 kb)-luciferase reporter, R1881 1 nM, 24 h
T1 construct: LNCaP cells were transiently transfected with the PSA (6.1 kb)-luciferase reporter for 24 h; endogenous in cells; host or cells: LNCaP
T1 sequence (P10275 1-920 T878A): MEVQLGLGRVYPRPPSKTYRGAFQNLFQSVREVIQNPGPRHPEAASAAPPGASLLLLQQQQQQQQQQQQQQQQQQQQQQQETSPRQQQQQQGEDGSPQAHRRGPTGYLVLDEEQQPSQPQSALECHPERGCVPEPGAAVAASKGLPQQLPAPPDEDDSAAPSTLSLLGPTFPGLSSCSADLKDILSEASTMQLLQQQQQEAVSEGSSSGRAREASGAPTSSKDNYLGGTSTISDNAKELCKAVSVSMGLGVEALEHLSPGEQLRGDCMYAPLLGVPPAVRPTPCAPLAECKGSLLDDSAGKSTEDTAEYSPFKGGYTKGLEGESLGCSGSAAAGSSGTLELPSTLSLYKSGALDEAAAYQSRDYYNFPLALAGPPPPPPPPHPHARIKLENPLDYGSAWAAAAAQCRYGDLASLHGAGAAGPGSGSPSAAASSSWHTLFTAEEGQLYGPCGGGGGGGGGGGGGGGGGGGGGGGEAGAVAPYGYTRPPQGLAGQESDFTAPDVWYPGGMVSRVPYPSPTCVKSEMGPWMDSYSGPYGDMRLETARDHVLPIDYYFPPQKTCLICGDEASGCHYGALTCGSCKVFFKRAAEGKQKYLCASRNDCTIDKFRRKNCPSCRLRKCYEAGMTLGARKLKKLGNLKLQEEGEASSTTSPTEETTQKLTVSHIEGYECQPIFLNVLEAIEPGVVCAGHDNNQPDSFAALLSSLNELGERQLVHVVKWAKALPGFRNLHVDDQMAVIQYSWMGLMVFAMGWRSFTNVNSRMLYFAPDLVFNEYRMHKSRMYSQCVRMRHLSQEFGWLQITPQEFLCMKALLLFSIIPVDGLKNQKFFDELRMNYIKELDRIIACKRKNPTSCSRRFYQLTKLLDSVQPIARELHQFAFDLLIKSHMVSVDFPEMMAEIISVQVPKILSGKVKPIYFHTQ
In short: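 LNCaP cells carrying a PSA (6.1 kb) promoter-luciferase reporter with AREs; androgen-induced firefly luciferase read from lysates for 10 s. RLU normalized to protein content; IC50 calculated from the normalized data.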

Row | SMILES | microsomal CLint at 1 μM [1] [µL/min/mg] | half-life at 1 μM [1] [min] | IC50 (androgen receptor (AR); read-out: PSA-Luc IC50) [nM] | IC50 (androgen receptor (AR); read-out: PSA-Luc IC50 Range) [nM]
1 | CC(C)(c1ccc(OCc2ccnc(NS(C)(=O)=O)n2)cc1)c1cc(Cl)c(OCCCl)c(C#N)c1 [Compound A109, N-(4-((4-(2-(3-chloro-4-(2-chloroethoxy)-5-cyanophenyl)propan-2-yl)phenoxy)methyl)pyrimidin-2-yl)methanesulfonamide] | < 12 | > 120 | 535 | 500 to 2000
2 | CC(C)(c1ccc(OCc2ocnc2S(C)(=O)=O)cc1)c1cc(Cl)c(OCCCl)c(C#N)c1 [Compound A28, 3-chloro-2-(2-chloroethoxy)-5-(2-(4-((4-(methylsulfonyl)oxazol-5-yl)methoxy)phenyl)propan-2-yl)benzonitrile] | < 12 | > 120 | 400 | < 500
3 | CC(C)(c1ccc(OCc2nc(S(C)(=O)=O)cs2)cc1)c1cc(Cl)c(OCCCl)c(C#N)c1 [Compound A136, 3-Chloro-2-(2-chloroethoxy)-5-(2-(4-((4-(methylsulfonyl)thiazol-2-yl)methoxy)phenyl)propan-2-yl)benzonitrile] | 12 to 48 |  |  | 500 to 2000
4 | CC(C)(c1ccc(OCc2coc(NS(C)(=O)=O)n2)cc1)c1cc(Cl)c(OCCCl)c(Cl)c1 [Compound A38, N-(4-((4-(2-(3,5-dichloro-4-(2-chloroethoxy)phenyl)propan-2-yl)phenoxy)methyl)oxazol-2-yl)methanesulfonamide] | < 12 | > 120 | 631 | 500 to 2000
5 | CCS(=O)(=O)Nc1nc(COc2ccc(C(C)(C)c3cc(Cl)c(OCCCl)c(C#N)c3)cc2)co1 [Compound A126] | < 12 |  |  | 500 to 2000
6 | CC(C)(c1ccc(OCc2ocnc2S(C)(=O)=O)cc1)c1cc(Cl)c(OCCCl)c(Cl)c1 [Compound A13, 5-((4-(2-(3,5-dichloro-4-(2-chloroethoxy)phenyl)propan-2-yl)phenoxy)methyl)-4-(methylsulfonyl)oxazole] | < 12 | > 120 | 592 | 500 to 2000
7 | CC(C)(c1ccc(OC[C@H](O)CNS(C)(=O)=O)cc1)c1cc(Cl)c(OC[C@H](O)CCl)c(Cl)c1 [X, reference compound] |  | > 120 | 1050 | 
8 | CC(C)(c1ccc(OCc2ncc(S(C)(=O)=O)s2)cc1)c1cc(Cl)c(OCCCl)c(C#N)c1 [Compound A93, 3-chloro-2-(2-chloroethoxy)-5-(2-(4-((5-(methylsulfonyl)thiazol-2-yl)methoxy)phenyl)propan-2-yl)benzonitrile] | < 12 | > 120 | 205 | < 500
9 | CCS(=O)(=O)Nc1nccc(COc2ccc(C(C)(C)c3cc(Cl)c(OCCCl)c(C#N)c3)cc2)n1 [Compound A131] | < 12 |  |  | 500 to 2000
10 | CC(C)(c1ccc(OCc2ccnc(NS(C)(=O)=O)n2)cc1)c1cc(Cl)c(OCCCl)c(Cl)c1 [Compound A74, N-(4-((4-(2-(3,5-dichloro-4-(2-chloroethoxy)phenyl)propan-2-yl)phenoxy)methyl)pyrimidin-2-yl)methanesulfonamide] | < 12 | > 120 | 658 | 500 to 2000
11 | C[C@H](Oc1ccc(C(C)(C)c2cc(Cl)c(OCCCl)c(C#N)c2)cc1)c1ccnc(NS(C)(=O)=O)n1 (single isomer, unassigned) [Compound A170] | < 12 |  |  | 500 to 2000
12 | Cc1cnc(NS(C)(=O)=O)nc1COc1ccc(C(C)(C)c2cc(Cl)c(OCCCl)c(C#N)c2)cc1 [Compound A122, N-(4-((4-(2-(3-Chloro-4-(2-chloroethoxy)-5-cyanophenyl)propan-2-yl)phenoxy)methyl)-5-methylpyrimidin-2-yl)methanesulfonamide] | < 12 |  |  | < 500
